According to US10441630B2, “Topical formulations and uses thereof” (OCULAR TECHNOLOGIES SARL, priority 2012, dated 2019):

Legend:
Assay type in all cases: physicochemical
[1] = Weight percent of drug loaded into MNF (entrapment, RP-HPLC); conditions: HCO-60 4 wt %, Octoxynol-40 0.01 wt %
Experimental: To determine the entrapment efficiency of the formulation, all the prepared formulations were subjected to entrapment efficiency test. Briefly, formulations were vortex mixed for homogeneity and 1 mL was transferred to a fresh (1.5 mL) eppendorf tube. Each formulation was lyophilized to obtain a solid at the bottom of eppendorf tube. The obtained solid was suspended in 1 mL of organic solvent (diethyl ether) to generate reverse micelles and release the drug into the external organic solvent. The organic solvent was evaporated overnight in speed vacuum. The resultant reversed micelles were resuspended in 1 mL of 2-propanol (dilution factor was taken into account) and further diluted to determine the concentration of compound 1001 entrapped in each micellar preparation with HPLC. The entrapment efficiency of the formulation was calculated with the following formula (wherein MNF=Mixed Nanomicellar Formulation): […]
In vitro analysis of compound 1001 was performed by a reversed phase high performance liquid chromatography (RP-HPLC) method with a Shimadzu HPLC pump (Shimadzu, Shimadzu Scientific instruments, Columbia, Md.), Alcott autosampler (model 718 AL), Shimadzu UV/Visible detector (Shimadzu, SPD-20A/20AV, USA), ODS column (5 μm, 150×4.6 mm) thermostated at 40°±1 C and Hewlett Packard HPLC integrator (Hewlett Packard, Palo Alto, Calif.). The mobile phase was comprised of methanol (MeOH), water and trifluoroacetic acid (TFA) (70:30:0.05% v/v) which was set at a flow rate of 0.5 mL/min. Detection wavelength was set at 272 nm. The sample tray temperature was maintained at 4° C. Calibration curve (0.5 to 5 μg/mL) for compound 1001 was prepared by making appropriate dilutions from the stock solution in 2-propanol. An injection volume of 10 μl was injected into the HPLC column for analysis. All the standards and samples prepared were stored at 4° C. before and during the analysis.
(§1) Mixed nanomicellar formulation encapsulating compound 1001 was prepared by solvent evaporation method in two steps: 1) Preparation of basic formulation and 2) rehydration. In step one, compound 1001, HCO-60 and octoxynol-40 were dissolved separately in 0.3 mL of ethyl acetate. These three solutions were mixed together in 15-mL centrifuge tube. The resultant mixture was vortexed to obtain a homogenous solution. Ethyl acetate solvent was removed with speed vacuum to obtain a solid thin film. The residue was kept overnight under high vacuum at room temperature to remove residual organic solvent. In step two, the resultant thin film was hydrated with 1 mL of double distilled deionized water by vortexing the solution. The rehydrated formulation was suspended in 2× phosphate buffer solution, (pH 6.5). It was filtered through 0.2 μm nylon filter membrane to remove the unentrapped drug aggregates and other foreign particulates. The entrapment of compound 1001 was determined by RP-HPLC following disruption of the micelles and solubilization of 1001 in the diluent (2-propanol) as described below
(§2) Weight percent of drug loaded into MNF was determined following the method for entrapment efficiency. Size and polydispersity index of the formulations was determined with Malvern zetasizer as described above. The formulations appear clear and have small size and narrow size distribution.

[2] = Physical appearance, melt method, HCO-60 and compound 1001; conditions: 1001 4 wt %; for Resuspend in water: water at 40° C.; for Physical appearance at room temperature (25° C.): melt mixture
Experimental: The preparation of MNF encapsulating compound 1001 (neat oil) can be divided into two steps. […] […] To this melt polymer compound 1001 (˜20 mg), thermostated at 40° C., was added and mixed for homogenous distribution. […] (in refrigerator).
This aqueous solution was allowed to reach room temperature, under natural conditions. The pH of the solution was adjusted to 5.5 and the volume was made up with 2× phosphate buffer saline (pH 5.5) containing octoxynol-40 (0.01 wt %) and PVP-K-90 (1.2 wt %). The formulation was filtered through 0.2 μm nylon filter to remove any foreign material and obtain a clear homogenous aqueous RX-1001 formulation.
The results obtained for physical appearance of the mixture, different phases, at different temperatures and appearance of final formulation are summarized in Tables 3a-3c.

[3] = Appearance of compound 1001 MNF, solvent evaporation method; conditions: HCO-60 4 wt %, Octoxynol-40 0.01 wt %
Experimental: as §1, §2

[4] = Mixed nanomicellar size and polydispersity index (Zetasizer) of compound 1001 MNF; conditions: HCO-60 4 wt %, Octoxynol-40 0.01 wt %
Experimental: The formulation size and polydispersity index were determined with Zetasizer, Malvern Instruments, NJ. In brief, approximately 1 ml of each formulation was transferred to a cuvette and placed in the instrument. A laser beam of light was used to determine the mixed nanomicellar size.
as §1, §2

[5] = 1001 initially added 0.035 wt %
[6] = 1001 initially added 0.070 wt %
[7] = 1001 initially added 0.095 wt %
[8] = 1001 initially added 0.120 wt %
[9] = 1001 initially added 0.250 wt %
[10] = 1001 initially added 0.300 wt %
[11] = 1001 initially added 0.400 wt %

C#CC[C@@H](O)/C=C/C=C/C#C[C@@H](O)CCCC(=O)OC(C)C [compound 1001]
1001 (loaded in mixed micelles) wt % [1, 5]: 0.033 wt % | 1001 (loaded in mixed micelles) wt % [1, 6]: 0.065 wt % | 1001 (loaded in mixed micelles) wt % [1, 7]: 0.084 wt % | 1001 (loaded in mixed micelles) wt % [1, 8]: 0.11 wt % | 1001 (loaded in mixed micelles) wt % [1, 9]: 0.26 wt % | 1001 (loaded in mixed micelles) wt % [1, 10]: 0.32 wt % | 1001 (loaded in mixed micelles) wt % [1, 11]: 0.45 wt % | Final formulation (make up with 2X buffer containing 0.01% Oc-40) ([2]; HCO-60 1.0 wt %): Emulsion | Resuspend in water ([2]; HCO-60 1.0 wt %): Emulsion | Final formulation (make up with 2X buffer containing 0.01% Oc-40) ([2]; HCO-60 2.0 wt %): Pale yellow clear | Resuspend in water ([2]; HCO-60 2.0 wt %): Forms pale | Final formulation (make up with 2X buffer containing 0.01% Oc-40) ([2]; HCO-60 2.25 wt %): Pale yellow clear | Resuspend in water ([2]; HCO-60 2.25 wt %): Forms pale | Final formulation (make up with 2X buffer containing 0.01% Oc-40) ([2]; HCO-60 2.5 wt %): Pale yellow clear | Resuspend in water ([2]; HCO-60 2.5 wt %): Forms very | Final formulation (make up with 2X buffer containing 0.01% Oc-40) ([2]; HCO-60 2.75 wt %): Clear solution | Resuspend in water ([2]; HCO-60 2.75 wt %): Forms very | Final formulation (make up with 2X buffer containing 0.01% Oc-40) ([2]; HCO-60 3.0 wt %): Clear solution | Resuspend in water ([2]; HCO-60 3.0 wt %): Clear solution | Final formulation (make up with 2X buffer containing 0.01% Oc-40) ([2]; HCO-60 3.5 wt %): Clear solution | Resuspend in water ([2]; HCO-60 3.5 wt %): Clear solution | Final formulation (make up with 2X buffer containing 0.01% Oc-40) ([2]; HCO-60 4.0 wt %): Clear solution | Resuspend in water ([2]; HCO-60 4.0 wt %): Clear solution | Physical appearance at room temperature (25° C.) ([2]; HCO-60 1.0 wt %): Pale yellow half | Physical appearance at room temperature (25° C.) ([2]; HCO-60 2.0 wt %): Pale yellow | Physical appearance at room temperature (25° C.) ([2]; HCO-60 2.25 wt %): Pale yellow waxy | Physical appearance at room temperature (25° C.) ([2]; HCO-60 2.5 wt %): Pale yellow waxy | Physical appearance at room temperature (25° C.) ([2]; HCO-60 2.75 wt %): Pale yellow waxy | Physical appearance at room temperature (25° C.) ([2]; HCO-60 3.0 wt %): Pale yellow waxy | Physical appearance at room temperature (25° C.) ([2]; HCO-60 3.5 wt %): Pale yellow waxy | Physical appearance at room temperature (25° C.) ([2]; HCO-60 4.0 wt %): Pale yellow waxy | Result [3, 5]: Clear/transparent | Result [3, 6]: Clear/transparent | Result [3, 7]: Clear/transparent | Result [3, 8]: Pale yellow color | Result [3, 9]: Yellow color | Result [3, 10]: Yellow color | Result [3, 11]: Yellow color | Mixed nanomicellar size (nm) [4, 5]: 24.90 nm | Polydispersity Index [4, 5]: 0.442 | Mixed nanomicellar size (nm) [4, 6]: 25.01 nm | Polydispersity Index [4, 6]: 0.414 | Mixed nanomicellar size (nm) [4, 7]: 24.79 nm | Polydispersity Index [4, 7]: 0.415 | Mixed nanomicellar size (nm) [4, 8]: 18.28 nm | Polydispersity Index [4, 8]: 0.320 | Mixed nanomicellar size (nm) [4, 9]: 18.37 nm | Polydispersity Index [4, 9]: 0.331 | Mixed nanomicellar size (nm) [4, 10]: 18.29 nm | Polydispersity Index [4, 10]: 0.345 | Mixed nanomicellar size (nm) [4, 11]: 18.2 nm | Polydispersity Index [4, 11]: 0.333
